According to ChEMBL document CHEMBL1141854, “A new 1,2-dihydroisoquinoline from the sponge petrosia similis” (J Nat Prod, 1999):
Calls of active or inactive are those of the source. The rule behind the calls is not given here.

Tests used:
Klebsiella pneumoniae = assay: Antibacterial activity against Klebsiella pneumoniae at 100 ug/disk; format: functional
Escherichia coli = assay: Antibacterial activity against sEscherichia coli at 100 ug/disk; format: functional
Artemia = assay: Toxicity against brine shrimp; format: organism-based; conditions: in vivo
Bacillus subtilis = assay: Antibacterial activity against Bacillus subtilis at 100 ug/disk; format: functional
Staphylococcus aureus = assay: Antibacterial activity against Staphylococcus aureus at 100 ug/disk; format: functional

CC(=O)OCc1nccc2c1C(=O)C(O)=C(C)C2=O was tested, and the zone of inhibition at 100 µg/disc (Klebsiella pneumoniae; read-out: IZ) was 12 mm, the zone of inhibition at 100 µg/disc (Escherichia coli; read-out: IZ) was 12 mm and the Activity (Artemia) was “Non-toxic”. It also gave a zone of inhibition at 100 µg/disc (Bacillus subtilis; read-out: IZ) of 16 mm and a zone of inhibition at 100 µg/disc (Staphylococcus aureus; read-out: IZ) of 14 mm.
With COc1cc(O)c2c(c1)C(COC(C)=O)N(C=O)C=C2 (stereo not given) the Activity (Klebsiella pneumoniae) was “inactive”, the Activity (Escherichia coli) was “inactive” and the Activity (Artemia) was “Non-toxic”. For the same compound, the Activity (Bacillus subtilis) was “inactive” and the Activity (Staphylococcus aureus) was “inactive”.
